Measured values from patent publication US4798896A, “Antipsychotic gamma-carboline N-oxides” (American Home Products Corporation, priority 1988, dated 1989).

Legend:
[1] = target: T1, serotonin-2 receptors (5HT2) (Rattus norvegicus, UniProt P14842); experiment: serotonin-2 (5HT2) receptor binding in brain cortical tissue; details: for inhibition at 1 µM: read-out: % Inhibition of serotonin 5HT2 binding, at 1 μM
T1 construct: employing brain cortical tissue; from tissue; host or cells: brain cortical tissue
T1 sequence (P14842 whole entry): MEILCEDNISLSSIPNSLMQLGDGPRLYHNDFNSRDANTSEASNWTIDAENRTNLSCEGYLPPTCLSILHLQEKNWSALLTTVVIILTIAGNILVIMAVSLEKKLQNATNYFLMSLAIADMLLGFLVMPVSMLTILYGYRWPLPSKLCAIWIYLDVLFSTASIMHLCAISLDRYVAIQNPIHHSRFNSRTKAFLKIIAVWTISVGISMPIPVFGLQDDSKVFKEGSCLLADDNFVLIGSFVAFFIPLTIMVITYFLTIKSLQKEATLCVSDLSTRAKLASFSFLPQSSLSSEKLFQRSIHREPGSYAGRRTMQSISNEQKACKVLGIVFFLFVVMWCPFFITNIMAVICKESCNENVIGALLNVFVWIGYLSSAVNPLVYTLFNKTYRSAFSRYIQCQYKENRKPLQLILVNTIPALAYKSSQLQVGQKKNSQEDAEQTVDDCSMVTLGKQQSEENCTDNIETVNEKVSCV

[2] = tested on: trained male CD rats (Charles River); experiment: conditioned avoidance, shelf-jump response test in trained rats; format: in vivo, rat
Text: The antipsychotic/anxiolytic properties of the pyridine N-oxides of this invention were established by standard pharmacologically accepted procedures involving conditioned avoidance studies in which trained male CD rats (Charles River), 400-500 gm body weight, are exposed to a fifteen second warning tone (conditional stimulus) continued for an additional fifteen seconds accompanied by electric shock. The rates can avoid the electric shock by jumping to an exposed shelft (shelf-jump response). A response during the initial warning tone is considered to be an avoidance response while a response during shock delivery is considered an escape response. The avoidance response is determined and expressed as a percentage of total trials from an appropriate number of trials. The shelf-jump response test procedure follows that of Herman et al., Comm. in Psychopharm., 3, 165 (1979).

[3] = target: T2, dopamine receptors (limbic D2) (Rattus norvegicus, UniProt P61169); experiment: limbic (accumbens) D2 binding, 3H-spiroperidol; details: limbic brain tissue
T2 construct: from tissue
T2 sequence (P61169 whole entry): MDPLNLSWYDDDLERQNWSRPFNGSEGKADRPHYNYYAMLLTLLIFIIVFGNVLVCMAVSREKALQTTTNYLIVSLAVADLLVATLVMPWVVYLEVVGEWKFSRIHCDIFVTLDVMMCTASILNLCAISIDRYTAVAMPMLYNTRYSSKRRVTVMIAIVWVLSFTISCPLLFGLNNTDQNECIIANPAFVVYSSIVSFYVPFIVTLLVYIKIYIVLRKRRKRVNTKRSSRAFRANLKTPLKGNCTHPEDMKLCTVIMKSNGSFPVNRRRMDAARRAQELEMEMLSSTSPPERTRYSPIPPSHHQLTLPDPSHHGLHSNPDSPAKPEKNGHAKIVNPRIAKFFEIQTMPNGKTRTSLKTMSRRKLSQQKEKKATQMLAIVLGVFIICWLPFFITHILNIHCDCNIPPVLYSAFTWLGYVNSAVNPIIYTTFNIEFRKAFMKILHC
Procedure: (§1) Following the procedures of Fields et al., Brain Res., 136, 578 (1977) and Yamamura et al., Neurotransmitter Receptor Binding, Raven Press, N.Y. (1978), homogenized limbic brain tissue is incubated with ^3 H-spiroperidol and various concentrations of test compound, filtered and washed and shaken with Hydrofluor scintillation cocktail (National Diagnostics) and counted in a Packard 460 CD scintillation counter. Binding in the presence of test compound is expressed as percent of specific binding [total binding less binding in the presence of 1 μM (+) butaclamol]. This limbic D2 binding procedure assesses a compounds potential binding at dopamine receptors as a predictor of antipsychotic activity.

[4] = overall appraisal from conditioned avoidance, serotonin binding inhibition and dopamine receptor binding inhibition procedures; details: tertiary nitrogen oxides of the parent compared
Procedure: as §1

[5] = isolation of metabolites from rat urine after oral administration of the parent drug; format: in vivo; details: oral administration of parent drug at 100 mg/kg
Text: (§2) By comparative analysis, the compounds of this invention were discovered to be one major form of several metabolites of the compounds disclosed in U.S. Pat. Nos. 4,636,563 and 4,672,117. This may be illustrated by consideration of the metabolic conversion of the compound of claim 13 of U.S. Pat. No. 4,636,563. Oral administration of the drug 8-fluoro-2,3,4,5-tetrahydro-2-[3-(3-pyridinyl)propyl]-1H-pyrido[4,3-b]indole to rats at a dose of 100 milligrams per kg followed by collectiion of urine and isolation of metabolites by column chromatography and selective solubilization in organic solvents yielded several metabolites. […] This metabolic pathway is consistent with the other anti-psychotic-anxilytic agents disclosed and claimed in U.S. Pat. Nos. 4,636,563 and 4,672,117.

[6] = detection of metabolite in monkey urine and plasma after administration of the parent drug; format: in vivo; details: intragastric 4 mg/kg or iv 1 mg/kg of parent drug
Text: as §2

NCCc1ccc(O)c(O)c1 [dopamine, reference compound]
activity at serotonin-2 receptor [1]: inactive

[O-][n+]1cccc(CCCN2CCc3[nH]c4ccc(F)cc4c3C2)c1 [D, 8-Fluoro-2,3,4,5-tetrahydro-2-[3-(3-pyridinyl)propyl]-1H-piperidino[4,3-b]indole N-oxide]
Inhibition of shelf-jump ([2]; 40 mg/kg): 16% | inhibition at 1 µM [3]: 66% | inhibition at 1 µM [1]: 68% | antipsychotic/anxiolytic activity [4]: meaningful antipsychotic/anxiolytic activity | metabolite of the parent drug in urine [5]: one of the major metabolites | detection as metabolite in urine and plasma [6]: detected in monkey urine and plasma

[O-][N+]1(CCCc2cccnc2)CCc2[nH]c3ccc(F)cc3c2C1 (stereo not drawn) [C, 8-Fluoro-2,3,4,5-tetrahydro-2-[3-(3-pyridinyl)propyl]-1H-piperidino[4,3-b]indole 2-oxide]
Inhibition of shelf-jump ([2]; result in words, dose not given): not significant | inhibition at 1 µM [3]: 0% | inhibition at 1 µM [1]: 18%

Fc1ccc2[nH]c3c(c2c1)CN(CCCc1cccnc1)CC3 [A, 8-fluoro-2,3,4,5-tetrahydro-2-[3-(3-pyridinyl)propyl]-1H-piperidino(4,3-b]indole, reference compound]
Inhibition of shelf-jump ([2]; 20 mg/kg): 73% | inhibition at 1 µM [3]: 93% | inhibition at 1 µM [1]: 78%

[O-][n+]1cccc(CCC[N+]2([O-])CCc3[nH]c4ccc(F)cc4c3C2)c1 (stereo not drawn) [B, 8-Fluoro-2,3,4,5-tetrahydro-2-[3-(3-pyridinyl)propyl]-1H-piperidino[4,3-b]indole N,2-dioxide]
inhibition at 1 µM [3]: 4% | inhibition at 1 µM [1]: 18%
